Assay results: US6521634B2, “Uses of dl-THP” (The Hong Kong University of Science & Technology, priority 2001, dated 2003)
Like-named read-outs stand apart in the source and are kept apart here.

Tests used:
α-2 adrenoceptors = conditions: rat cerebral cortex; previously performed studies; cited from earlier work
ICR mice [1] = assay: Elevated plus-maze test; type: in vivo
Method: ICR mice of either sex, weighing 14-17 g were used. Animals were housed in groups of four or five and were given food and water ad libitum and maintained on a 11 hour light: 13 hour dark cycle. All of the experimental groups had 12 animals per group. dl-THP was dissolved in double distilled water and administered orally 1 hour before testing at concentrations as detailed below, with a total injection volume of 10 ml/kg. For the control group, double-distilled water was used as the vehicle. All procedures were carried out in a quiet, air-conditioned laboratory between 08:00 and 13:00 at ambient temperature of 20-22° C. At the end of each session any boluses were removed and the box was thoroughly wiped with 70% ethanol. The elevated plus-maze is made of wood as a horizontal cross consisting of two open arms (25×5 cm) and two opposite arms (25×5 cm) enclosed by 20 cm high walls. The arms extend from a central platform having dimensions of 5×5 cm. The plus-maze is elevated to a height of 40 cm from the floor. The maze is put inside a box with dimensions of 30×30×50 cm. After the hole-board test, the mice are immediately placed on the central platform of the maze facing a closed arm. The number of arm entries and the time spent into the open and closed arm are counted for 5 minutes (Pellow S et al., “Anxiolytic and anxiogenic drug effects on exploratory activity in an elevated plus-maze: a novel test of anxiety in the rat.”, Pharmacol Biochem Behav. March 1986;24(3):525-9; PMID: 2871560). Arm entry was defined as all four feet in the arm. The total number of arm entries provided a measure of general activity. […] The results from the locomotor activity test and the elevated plus-maze test are expressed as mean±standard error of mean (SEM). All data were submitted to analysis of variance (ANOVA). Post hoc comparisons between individual treatments and controls of the locomotor activity test, the hole-board test and the elevated plus-maze test were made using Dunnett's t-test. The level of significance was considered to be p<0.05.

rats = conditions: rat, in vivo, po; cited from earlier work
ICR mice [2] = assay: Locomotor activity test; type: in vivo; conditions: 1 hour before 5 minute test
Method: ICR mice of either sex, weighing 14-17 g were used. Animals were housed in groups of four or five and were given food and water ad libitum and maintained on a 11 hour light: 13 hour dark cycle. All of the experimental groups had 12 animals per group. dl-THP was dissolved in double distilled water and administered orally 1 hour before testing at concentrations as detailed below, with a total injection volume of 10 ml/kg. For the control group, double-distilled water was used as the vehicle. All procedures were carried out in a quiet, air-conditioned laboratory between 08:00 and 13:00 at ambient temperature of 20-22° C. At the end of each session any boluses were removed and the box was thoroughly wiped with 70% ethanol. The ZIL-2 apparatus (Beijing Institute of Materia Medica) having dimensions of 60×60×12 cm was used to perform this test. It consists of four circular plastic boxes of 25 cm diameter, each having 6 equally distributed infrared photocells. The locomotor activity was counted automatically during a 5 minute test period. A decrease in the number of transitions reflects a decrease in locomotor activity. The results from the locomotor activity test and the elevated plus-maze test are expressed as mean±standard error of mean (SEM). All data were submitted to analysis of variance (ANOVA). Post hoc comparisons between individual treatments and controls of the locomotor activity test, the hole-board test and the elevated plus-maze test were made using Dunnett's t-test. The level of significance was considered to be p<0.05.

ICR mice [3] = assay: Hole-board test; type: in vivo; conditions: 5 minute test
Method: ICR mice of either sex, weighing 14-17 g were used. Animals were housed in groups of four or five and were given food and water ad libitum and maintained on a 11 hour light: 13 hour dark cycle. All of the experimental groups had 12 animals per group.
dl-THP was dissolved in double distilled water and administered orally 1 hour before testing at concentrations as detailed below, with a total injection volume of 10 ml/kg. For the control group, double-distilled water was used as the vehicle.
All procedures were carried out in a quiet, air-conditioned laboratory between 08:00 and 13:00 at ambient temperature of 20-22° C. At the end of each session any boluses were removed and the box was thoroughly wiped with 70% ethanol.
The hole-board apparatus is a walled wood arena of 60×60×30 cm, with four equidistant 3 cm diameter holes spaced on the floor. The mice are placed on the center of the arena and the number of head-dips on the hole, the time spent head-dipping, the number of rearings and the time spent rearing are counted during a 5 minute test period (File SE et al., “The effects of triazolobenzodiazepines in two animal tests of anxiety and in the holeboard.”, Br J Pharmacol. November 1985;86(3):729-35; PMID: 2866006). After each trial, the floor of the apparatus was wiped and dried thoroughly with tissue to remove traces of the previous path.
The results from the locomotor activity test and the elevated plus-maze test are expressed as mean±standard error of mean (SEM). All data were submitted to analysis of variance (ANOVA). Post hoc comparisons between individual treatments and controls of the locomotor activity test, the hole-board test and the elevated plus-maze test were made using Dunnett's t-test. The level of significance was considered to be p<0.05.

mice = conditions: cited from earlier work
α-1 adrenoceptors = conditions: rat cerebral cortex; previously performed studies; cited from earlier work
ICR mice [4] = assay: Horizontal-wire test; type: in vivo; conditions: up to 30 mg/kg orally
Method: ICR mice of either sex, weighing 14-17 g were used. Animals were housed in groups of four or five and were given food and water ad libitum and maintained on a 11 hour light: 13 hour dark cycle. All of the experimental groups had 12 animals per group. dl-THP was dissolved in double distilled water and administered orally 1 hour before testing at concentrations as detailed below, with a total injection volume of 10 ml/kg. For the control group, double-distilled water was used as the vehicle. The mice are lifted by the tail and allowed to grasp a horizontally strung wire (1 mm diameter, 15 cm long and placed 20 cm above the table) with their forepaws and released (Bonetti E P et al., Psychophannacology (Berl). 1982;78(1):8-18; PMID: 6292984).

[5] = target: BDZ binding site of the GABAA receptor; assay: competitive binding assay with [3H]-flunitrazepam; conditions: [3H]-flunitrazepam competition
[6] = 1, 10 and 30 mg/kg orally, dose-dependent, 5 minute test

For `COc1cc2c(cc1OC)C1Cc3ccc(OC)c(OC)c3CN1CC2` (racemic) [dl-THP, 5,8,18,13a-tetrahydro-2,3,9,10-tetramethoxy-6H-dibenzo [a,q] quinolizine], the Ki (α-2 adrenoceptors) is listed as 4.97 µM, the “open arm parameters versus controls (Dunnett's test)” value (ICR mice [1]; 1 mg/kg orally) is listed as “significantly differed from controls” and the “total number of arm entries” value (ICR mice [1]; 1, 10 and 30 mg/kg orally, 5 minute test) is listed as “did not significantly alter”. The “percentage of open arm entries” value (ICR mice [1]; [6]) was “significantly elevated”, the “percentage of time spent on the open arms” value (ICR mice [1]; [6]) was “significantly elevated” and the LD50 (rats) was 930 mg/kg. The “reduction of locomotor activity” value (ICR mice [2]; 1 mg/kg orally) was 33%, the “reduction of locomotor activity” value (ICR mice [2]; 10 mg/kg orally) was 33% and the “reduction of locomotor activity” value (ICR mice [2]; 30 mg/kg orally) was 36%. The “number of head-dips (Dunnett's test)” value (ICR mice [3]; 10 mg/kg orally) was “significantly reduced”, the number of head-dips (ICR mice [3]; 30 mg/kg orally) was “significantly reduced” and the time spent head-dipping (ICR mice [3]; 30 mg/kg orally) was “significantly reduced”. The LD50 (mice; mice, sub-cutaneous administration) was 670 mg/kg, the LD50 (mice; mouse, in vivo, po) was 1160 mg/kg and the Ki (α-1 adrenoceptors) was 4.7 µM. The “muscle-relaxant effect, grasping of horizontal wire” value (ICR mice [4]) was “without effect”, the IC50 ([5]; read-out: IC50, inhibition of binding of [3H]-flunitrazepam to the BDZ binding site of the GABAA receptor) was 836 µM and the Ki ([5]; read-out: Ki, inhibition of binding of [3H]-flunitrazepam to the BDZ binding site of the GABAA receptor) was 518 µM.
